Measurements as given in patent US20260028404A1 (UNIVERSITY OF KANSAS, priority 2022, published 2026).
Entries after “also recorded” stand apart in the source; their conditions may differ.

Key:
[1] = tested on: AT84 model; details: low-dose GA (300 μg) alone, previous study; cited from earlier work
[2] = tested on: differentially expressed genes; experiment: RNAseq differential gene expression, pre vs post treatment tumor; type: in vivo, human
Procedure: RNASeq Analysis: A cutoff linear fold-change of 4 was used to select for the differentially expressed genes in each patient. Gene ontology (GO) of the biological process, functional annotation clustering, and Kyoto Encyclopedia of Genes and Genomes (KEGG) pathway analysis of the differentially expressed genes was performed using Database for Annotation, Visualization, and Integrated Discovery (DAVID) v2021^7,8.
Immune biomarkers were assessed in tumor biopsies and compared with those in the resected tumors after treatment. Conventional RNA sequencing and a geographical sequencing platform (GeoMx) were used to assess immune markers at the transcriptional level. In the RNA-Seq gene expression analysis, genes were filtered for differentially expressed genes (|FC|<4) between pre-and post-samples for three patients.

[3] = biological target: Ki-67; experiment: Ki-67 IHC of pre- and post-treatment tumor specimens; type: in vivo, human; details: for Ki67 results, biopsy: before treatment
Procedure: Ki-67 and Caspase-3 levels: To potentially detect an early signal for anti-tumoral efficacy of Copaxone® treatment, changes in the level of Ki-67 and caspase-3 before and after treatment with Copaxone® were evaluated by IHC. FFPE tumor sections from pre-and post-treatment specimens were mounted on the same slide and stained using Caspase 3 (Biocare, Pacheco, CA) and Ki-67 (MIB-1) (Dako, Carpinteria, CA).

[4] = tested on: 28 immune related proteins; experiment: GeoMx digital spatial profiling, biopsy vs resected treated tumor; type: in vivo, human
Procedure: GeoMx DSP analysis: Digital spatial profiling of pre-and post-treatment formalin-fixed, paraffin embedded (FFPE) tumor tissue was performed using the GeoMx DSP platform (NanoString Technologies) to measure levels of 28 protein markers associated with immune oncology. Specifically, the immune cell profiling core protein module and IO drug target protein module were used for this analysis following manufacturer's protocol for staining, hybridization, collection, detection (nCounter based-counting), and data normalization. Briefly, this entailed an initial pathologist review of hematoxylin and eosin-stained sections by a pathologist at KUMC to verify presence of tumor cells within the FFPE block. Next, a 5 μm-think unstained FFPE slide was subjected to a cocktail of primary antibodies conjugated with unique DNA-oligonucleotide moieties attached with a light sensitive photocleavable linker. Within this cocktail were also anti-pan-cytokeratin (included with GeoMx assay and used for the basal cell carcinoma and squamous cell carcinoma samples) or anti-MART-1 (Novus Biologicals, catalog #NBP2-46603AF647 used for targeting epithelium in melanoma samples), CD45 (for targeting immune cells) and Syto-13 (used as a nuclear stain). These fluorescently labeled antibodies were used for imaging and identifying the regions of interest (ROIs) followed by segmentation into tumor cells and immune cells for independent collection from each ROI into individual wells of a 96-well plate followed by digital quantification using the NanoString nCounter platform. The GeoMx DSP Analysis Suite version 2.4 was used to perform data QC, normalization, and statistical analysis following guidance by NanoString field scientists. For analysis of similar cell populations (i.e., expression levels only in epithelial cells or only in immune cells), the geometric mean of housekeeping proteins GAPDH, Histone H3, and S6 was used for normalization. When different cell populations were being analyzed (i.e., expression levels in epithelial versus immune cells), the geometric mean of the signal-to-noise ratio of negative control mouse and rabbit isotype IgG controls was used for background correction prior.
The GeoMx Digital Spatial Profiling (DSP) platform (NanoString) was used to profile 28 immune related proteins. This platform allows users to perform nondestructive interrogation of formalin-fixed paraffin embedded (FFPE) tissue (among other tissue types) for multiplexed spatial profiling of immunooncology-related proteins to assess tumor cells and their microenvironment. The GeoMx platform uses a cocktail of antibodies conjugated to photocleavable DNA-barcoded oligos to provide high multiplex capacity and the use of guided ultraviolet light exposure (by way of adjustable 1 million micromirrors) provides a high degree of flexibility in selection of regions of interest for study. DSP technology and the GeoMx platform have been extensively reviewed.
Using the GeoMx DSP platform, we performed in situ digital spatial profiling of tissue specimens collected from the COPAX trial patients before and after treatment to measure levels of 28 proteins (Immune cell profiling panel, and the IO drug target panel). After a pathologist review of H&E-stained tissue specimens to assess presence of tumor cells, GeoMx DSP analysis was performed on a serial unstained slide for each sample. Regions of interest (ROIs) which encompassed both tumor and immune cells were selected either by free-hand drawing using the polygon tool or using a standard circle. The ROIs were further segmented into tumor cells and immune cells based on the staining pattern of morphology markers (pan-cytokeratin and CD45 for the carcinomas and MARTI and CD45 for the melanomas). Following segmentation, the DNA bar codes corresponding to each target in the antibody cocktail were collected by the instrument. […]

[5] = tested on: CT26wt tumors; experiment: Example 6 syngeneic CT26wt model with anti-mPD-L1; type: in vivo, BALB/c mice; details: of 8 animals on Day 0
Procedure: FIG. 14. […] Female BALB/c mice were implanted with CT26wt tumor cells into the mammary fat pad on Day 0 and were treated as depicted in the figure legends. […] The number of animals alive on Days 0 (implantation) and 45 (study termination), are shown for each group in parenthesis.
Each experimental group contained eight female BALB/c mice after randomization. On Day 0, 0.5×10^6 CT26wt murine colon adenocarcinoma tumor cells in 100 μl PBS were implanted into the left mammary fat pad of each mouse.
After animals had been randomized on Day 6, treatments were initiated on the same day. […] All groups were evaluated versus the Control, which were animals that had been treated with 25 μl/mouse Vehicle Control (4% mannitol) i.t. in combination with 10 mg/kg Isotype Control i.p.
During the course of the study, individual animals were either euthanized prior to study end without performing a necropsy, after they had reached humane endpoint, or were found dead. On Day 45, the study was terminated and all remaining animals were euthanized without performing a necropsy.

For Glatiramer acetate [GA], the “tumor growth / tumor size” value [1] is listed as “significantly increased tumor growth; also recorded: increases tumor size”, the “Gene Ontology enrichment, upregulated biological processes” value ([2]; all three patients) is listed as “upregulation in genes involved in promoting an immune-rich tumor microenvironment” and the “genes downregulated post treatment” value ([2]; patient 1) is listed as 406 genes. The “genes upregulated post treatment” value ([2]; patient 1, |FC|<4 filter as printed, listed as Copaxone) was 6355 genes, the “genes upregulated post treatment” value ([2]; patient 1, |FC|<4 filter as printed, listed as Copaxone®) was 6,355 genes and the “genes downregulated post treatment” value ([2]; patient 2) was 75 genes. The “genes upregulated post treatment” value ([2]; patient 2) was 647 genes, the “genes downregulated post treatment” value ([2]; patient 3) was 128 genes and the “genes upregulated post treatment” value ([2]; patient 3) was 5375 genes. The “Gene Ontology enrichment, downregulated biological processes” value ([2]; three patients) was “No biological processes were consistently found to be downregulated post treatment”, the “Ki67 results, treated” value ([3]; patient BCCa-Left Nasal Ala, after 2 Copaxone injections) was 60% and the “Ki67 results, biopsy” value ([3]; patient BCCa-Left Nasal Ala) was 65%. The “Ki67 results, treated” value ([3]; patient BCCa-Right Flank, after 3 Copaxone injections) was 44%, the “Ki67 results, biopsy” value ([3]; patient BCCa-Right Flank) was 62% and the “Ki67 results, treated” value ([3]; patient BCCa-Right Post. Neck, after 2 Copaxone injections) was 45%. The “Ki67 results, biopsy” value ([3]; patient BCCa-Right Post. Neck) was 70%, the “Ki67 results, treated” value ([3]; patient SCCa-Right Cheek, after 1 Copaxone injection) was 45% and the “Ki67 results, biopsy” value ([3]; patient SCCa-Right Cheek) was 55%. For the same substance, the “Ki67, marker of cell proliferation (overall)” value ([3]; patients, biopsy vs treated tumor) was “Consistent reductions in Ki67”, the “patients with CD56 upregulated” value ([4]; Table B patients) was 2 patients and the “patients with PD-L1 upregulated” value ([4]; Table B patients) was 3 patients. The “Gene expression (upregulated post-treatment)” value (from here on “Gene expression”) ([4]; patient BCCa-Left Nasal Ala, 2 Copaxone injections) was “CD56, CD11c,”, the “Gene expression” value ([4]; patient BCCa-Right Post. Neck, 2 Copaxone injections) was “VISTA, GITR” and the “Gene expression” value ([4]; patient SCCa-Right Cheek, 1 Copaxone injection) was “CD45, CD3,; also recorded: OX401, GITR,”. The “immune marker expression after treatment (GeoMx, overall)” value ([4]; patients, biopsy vs resected treated tumor, listed as Copaxone®) was “immunostimulatory effect at the intratumoral injection site; also recorded: Several patients exhibited upregulated expression of genes that encode targets for checkpoint inhibitor therapy; also recorded: upregulated markers of stimulatory immune activity; also recorded: Immune markers including hallmarks of T cell recruitment and activation were upregulated in tumors” and the “number of animals alive on Day 45 (study termination)” value [5] was 0.
